Reference: patent US9518038B2, “Condensation product of theanine derivative and carboxylic acid coumarin derivative, its intermediate, preparation method and use thereof” (SHANDONG YINGDONG YINGHAO BIOTECHNOLOGY, INC., priority 2012, dated 2016)

How the values were obtained:
[1] = tested on: human prostate cancer cells PC-3; assay: MTT growth inhibition, PC-3 cells; format: cell-based; settings: 72 h after treatment, read-out: Drug concentration (IC50) at which 50% cancer cells survived
Text: (§1) Cell lines and cell culture: human lung cancer cells A549 and H460, human breast cancer cells MCF-7 and MDA-MB-231, human gastric cancer cells BGC-823, human prostate cancer cells PC-3, human chronic leukemia cells K562, human lymphoma cells U937, human liver cancer cells SMMC7721 and HepG2, human colon cancer cells HT29, human pancreatic cancer cells PANC-1 and BxPC3, human cervical cancer Hela cell lines, human brain tumor cells Daoy, human neuroma cells D54 and human oral epidermoid cancer cells KBV200 line with strong drug resistance, mouse melanoma cells B16, and highly metastatic Lewis lung cancer cell lines were purchased from American Type Culture Collection of the U.S. These cells were cultured with DMEM and RPMI-1640 culture solutions separately.
(§2) The procedure was as follows:
(§3) (1) 0.25% trypsin was used to digest cancer cells in a logarithmic growth phase to prepare a single-cell suspension, the concentration of cells was adjusted to 5×10^4/mL, and the adjusted suspension was inoculated into a 96-well culture plate with 100 μl per well;
(§4) (2) The culture plate was transferred into a 37° C. incubator with a saturated humidity and 5% of CO2 and cultured for 24 h; the compounds and the intermediates thereof obtained in embodiments 1-7 and the compound as represented by formula (IIIa) or the positive control anti-cancer drug with the concentration of 1-1000 μM/L were added to enable the final concentration to be 0.1-1500 μM/L. Control wells (only added with 200 μl of cell suspension) and drug-free blank control wells (containing the solvent of 0.01% DMSO) were set, each group included 8 wells, and the plate was placed into the 37° C. incubator with saturated humidity and 5% of CO2 for culturing;
(§5) (3) The 96-well plate was taken out at 48 h and 72 h after dosing, the original culture medium was carefully removed by suction, 100 μl of serum-free DMEM culture medium and 10 μl of MTT (5 mg/mL) solution were added in each well. The plate was continuously cultured for another 4 h and then the culture was terminated;
(§6) (4) The supernatant in the wells was carefully removed by suction, each well was added with 150 μl of DMSO and shaked at room temperature for 10-15 min to fully dissolve crystals.
(§7) (5) Colorimetric analysis: the wavelength was selected as 570 nm, the light absorbance (A value) of each well was determined on the microplate reader and the results were recorded; the experiment was repeated for three times;
(§8) (6) the experimental results were calculated according to the following formula: relative survival rate=(A value of each experimental group/A value of cell control group)×100%
(§9) Calculation of median-effect concentration (IC50, namely the drug concentration at which the inhibition rate is 50%, also known as half inhibitory concentration):
(§10) IC50 of the detected component was calculated by using a regression equation.

[2] = tested on: human pancreatic cancer cells BxPC3; assay: MTT growth inhibition, BxPc3 cells; format: cell-based; settings: Homo sapiens, BXPC-3, 72 h after treatment, read-out: Drug concentration (IC50) at which 50% cancer cells survived
Text: as §1, §2, §3, §4, §5, §6, §7, §8, §9, §10

[3] = tested on: human chronic leukemia cells K562; assay: MTT growth inhibition, K562 cells; format: cell-based; settings: 72 h after treatment, read-out: Drug concentration (IC50) at which 50% cancer cells survived
Text: as §1, §2, §3, §4, §5, §6, §7, §8, §9, §10

[4] = tested on: human cervical cancer Hela cell lines; assay: MTT growth inhibition, Hela cells; format: cell-based; settings: Homo sapiens, 72 h after treatment, read-out: Drug concentration (IC50) at which 50% cancer cells survived
Text: as §1, §2, §3, §4, §5, §6, §7, §8, §9, §10

[5] = tested on: highly metastatic Lewis lung cancer cell lines; assay: MTT growth inhibition, LLC cells; format: cell-based, mouse; settings: Mus musculus, Lewis lung carcinoma, 72 h after treatment, read-out: Drug concentration (IC50) at which 50% cancer cells survived
Text: as §1, §2, §3, §4, §5, §6, §7, §8, §9, §10

[6] = tested on: human lymphoma cells U937; assay: MTT growth inhibition, U937 cells; format: cell-based; settings: Homo sapiens, U-937, 72 h after treatment, read-out: Drug concentration (IC50) at which 50% cancer cells survived
Procedure: as §2, §5, §6, §7, §8, §10

[7] = tested on: human liver cancer cells HepG2; assay: MTT growth inhibition, HepG2 cells; format: cell-based; settings: 72 h after treatment, read-out: Drug concentration (IC50) at which 50% cancer cells survived
Text: as §1, §2, §3, §4, §5, §6, §7, §8, §9, §10

[8] = tested on: mouse melanoma cells B16; assay: MTT growth inhibition, B16 cells; format: cell-based; settings: Mus musculus, 72 h after treatment, read-out: Drug concentration (IC50) at which 50% cancer cells survived
Text: as §1, §2, §3, §4, §5, §6, §7, §8, §9, §10

[9] = tested on: human pancreatic cancer cells PANC-1; assay: MTT growth inhibition, PANC-1 cells; format: cell-based; settings: 72 h after treatment, read-out: Drug concentration (IC50) at which 50% cancer cells survived
Text: as §1, §2, §3, §4, §5, §6, §7, §8, §9, §10

[10] = tested on: human brain tumor cells Daoy; assay: MTT growth inhibition, Daoy cells; format: cell-based; settings: Homo sapiens, 72 h after treatment, read-out: Drug concentration (IC50) at which 50% cancer cells survived
Text: as §1, §2, §3, §4, §5, §6, §7, §8, §9, §10

[11] = tested on: human liver cancer cells SMMC7721; assay: MTT growth inhibition, SMMC7721 cells; format: cell-based; settings: SMMC-7721, S-7721 (SMMC7721), 72 h after treatment, read-out: Drug concentration (IC50) at which 50% cancer cells survived
Text: as §1, §2, §3, §4, §5, §6, §7, §8, §9, §10

[12] = tested on: human neuroma cells D54; assay: MTT growth inhibition, D54 cells; format: cell-based; settings: Homo sapiens, 72 h after treatment, read-out: Drug concentration (IC50) at which 50% cancer cells survived
Text: as §1, §2, §3, §4, §5, §6, §7, §8, §9, §10

[13] = tested on: human oral epidermoid cancer cells KBV200; assay: MTT growth inhibition, KBV200 cells; format: cell-based; settings: 72 h after treatment, read-out: Drug concentration (IC50) at which 50% cancer cells survived
Text: as §1, §2, §3, §4, §5, §6, §7, §8, §9, §10

[14] = tested on: human breast cancer cells MCF-7; assay: MTT growth inhibition, MCF-7 cells; format: cell-based; settings: MCF7, 72 h after treatment, read-out: Drug concentration (IC50) at which 50% cancer cells survived
Text: as §1, §2, §3, §4, §5, §6, §7, §8, §9, §10

[15] = tested on: human colon cancer cells HT29; assay: MTT growth inhibition, HT29 cells; format: cell-based; settings: HT-29, 72 h after treatment, read-out: Drug concentration (IC50) at which 50% cancer cells survived
Text: as §1, §2, §3, §4, §5, §6, §7, §8, §9, §10

[16] = tested on: Caski human cervical cancer cells; assay: MTT growth inhibition, Caski cells; format: cell-based; settings: Ca-Ski, 72 h after treatment, read-out: Drug concentration (IC50) at which 50% cancer cells survived
[17] = tested on: human lung cancer cells A549; assay: MTT growth inhibition, A549 cells; format: cell-based; settings: 72 h after treatment, read-out: Drug concentration (IC50) at which 50% cancer cells survived
Text: as §1, §2, §3, §4, §5, §6, §7, §8, §9, §10

[18] = tested on: human lung cancer cells H460; assay: MTT growth inhibition, H460 cells; format: cell-based; settings: NCI-H460, 72 h after treatment, read-out: Drug concentration (IC50) at which 50% cancer cells survived
Text: as §1, §2, §3, §4, §5, §6, §7, §8, §9, §10

[19] = tested on: human breast cancer cells MDA-MB-231; assay: MTT growth inhibition, MDA-MB-231 cells; format: cell-based; settings: 72 h after treatment, read-out: Drug concentration (IC50) at which 50% cancer cells survived
Text: as §1, §2, §3, §4, §5, §6, §7, §8, §9, §10

[20] = tested on: human gastric cancer cells BGC-823; assay: MTT growth inhibition, BGC-823 cells; format: cell-based; settings: 72 h after treatment, read-out: Drug concentration (IC50) at which 50% cancer cells survived
Text: as §1, §2, §3, §4, §5, §6, §7, §8, §9, §10

Row | Compound | IC50 [1] [µM] | IC50 [2] [µM] | IC50 [3] [µM] | IC50 [4] [µM] | IC50 [5] [µM] | IC50 [6] [µM] | IC50 [7] [µM] | IC50 [8] [µM] | IC50 [9] [µM] | IC50 [10] [µM] | IC50 [11] [µM] | IC50 [12] [µM] | IC50 [13] [µM] | IC50 [14] [µM] | IC50 [15] [µM] | IC50 [16] [µM] | IC50 [17] [µM] | IC50 [18] [µM] | IC50 [19] [µM] | IC50 [20] [µM]
1 | O=C(O)c1cc2cc(Cl)ccc2oc1=O [Compound IIIc, 6-chlorocoumarin-3-carboxylic acid] | 500 | 500 | 600 | 600 | 400 | 500 | 300 | 600 | 500 | 400 | 500 | 300 | 400 | 300 | 700 | 400 | 600 ± 30 | 350 ± 50 | 500 | 300
2 | O=C(O)c1cc2cc(Br)ccc2oc1=O [Compound IIId, 6-bromocoumarin-3-carboxylic acid] | 500 | – | 600 | 600 | 400 | 500 | – | 600 | 500 | – | 500 | – | – | 400 | 700 | – | 600 | 500 | 500 | 700 ± 50
3 | O=C(O)c1cc2cc(F)ccc2oc1=O [Compound IIIe, 6-fluorocoumarin-3-carboxylic acid] | 520 | 500 | 300 | 600 | 380 | 560 | 400 | 600 | 480 | 500 | 490 | 300 | 300 | 390 | 570 | 380 | 450 | 450 | 520 | 700
